Patent US20230134986A1, “GLUCOSE TRIPTOLIDE CONJUGATES AND USES THEREOF” (The Johns Hopkins University, priority 2020, published 2023)
Read-outs that look alike come from different tables or passages of the source.

Experiments:
[1] = system: HUVEC; test: XTT viability assay, HUVEC; assay type: cell-based; conditions: Homo sapiens, Primary normal cells
[2] = system: Airway Epithelial cell; test: XTT viability assay, airway epithelial cells; assay type: cell-based; conditions: Homo sapiens, Primary normal cells
Description: (§1) Cells and culture conditions. Primary astrocytes (Lonza, Walkersville, Md.; ABM™ Basal Media with AGM™ SingleQuots™ Supplement Pack), fibroblast (ATCC; Fibroblast Basal Medium (ATCC© PCS-201-030™) with Fibroblast Growth Kit-Serum-free (ATCC© PCS-201-040™)), airway epithelial cell (ATCC; Airway Epithelial Cell Basal Medium (ATCC© PCS-300-030™) with Bronchial Epithelial Cell Growth Kit (ATCC© PCS-300-040™)), renal proximal tubule (ATCC; Renal Epithelial Cell Basal Medium (ATCC© PCS-400-030™) with Renal Epithelial Cell Growth Kit (ATCC© PCS-400-040™)), prostate epithelial cell (Lonza; PrEGM™ BulletKit™) and mammary epithelial cell (Lonza; MEBM™ BulletKit™) were kept in a humidified incubator at 37° C. adjusted to 5% CO2. […]
(§2) XTT assay. […] Cell viability was measured using the R&D Systemsm TACS XTT Cell Proliferation/Viability Assay (R&D Systems, Minneapolis, Minn.).

[3] = system: Astrocyte; test: XTT viability assay, primary astrocytes; assay type: cell-based; conditions: Homo sapiens, Primary normal cells
Description: as §1, §2

[4] = system: DU-145; test: XTT viability assay, DU-145; assay type: cell-based; conditions: Homo sapiens; Prostate Cancer, DU-145, XTT
Description: as §1, §2

[5] = system: RPMI-7951; test: XTT viability assay, RPMI-7951; assay type: cell-based; conditions: Homo sapiens; Melanoma, RPMI-7951, XTT
Description: as §1, §2

[6] = system: SK-Mel-3; test: XTT viability assay, SK-Mel-3; assay type: cell-based; conditions: Homo sapiens, SK-MEL3; Melanoma, SK-Mel-3, XTT
Description: as §1, §2

[7] = system: CfPAC-1; test: XTT viability assay, CfPAC-1; assay type: cell-based; conditions: Homo sapiens; Pancreatic Cancer, CfPAC-1, XTT
Description: as §1, §2

[8] = system: Mammary Epithelial cell; test: XTT viability assay, mammary epithelial cells; assay type: cell-based; conditions: Homo sapiens, Primary normal cells
Description: as §1, §2

[9] = system: BxPC3; test: XTT viability assay, BxPC3; assay type: cell-based; conditions: Homo sapiens, BXPC-3, Pancreatic Cancer
Description: as §1, §2

[10] = system: NCI-H1299; test: XTT viability assay, NCI-H1299; assay type: cell-based; conditions: Homo sapiens, Lung Cancer
Description: as §1, §2

[11] = system: primary human cells; test: XTT viability assay, panel of primary non-malignant cells (means and ranges); assay type: cell-based
Description: Cells and culture conditions. Primary astrocytes (Lonza, Walkersville, Md.; ABM™ Basal Media with AGM™ SingleQuots™ Supplement Pack), fibroblast (ATCC; Fibroblast Basal Medium (ATCC© PCS-201-030™) with Fibroblast Growth Kit-Serum-free (ATCC© PCS-201-040™)), airway epithelial cell (ATCC; Airway Epithelial Cell Basal Medium (ATCC© PCS-300-030™) with Bronchial Epithelial Cell Growth Kit (ATCC© PCS-300-040™)), renal proximal tubule (ATCC; Renal Epithelial Cell Basal Medium (ATCC© PCS-400-030™) with Renal Epithelial Cell Growth Kit (ATCC© PCS-400-040™)), prostate epithelial cell (Lonza; PrEGM™ BulletKit™) and mammary epithelial cell (Lonza; MEBM™ BulletKit™) were kept in a humidified incubator at 37° C. adjusted to 5% CO2. Prostate (PC3, LNCaP, DU-145), breast (MDA-MB-231, MDA-MB-453, SK-BR-3), head and neck (A253, Detroit 562, SCC-25), melanoma (SK-Mel-3, SK-Mel-1, RPMI-7951), pancreatic (CfPAC-1, BxPC3, SW1990), lung (A549, NCI-H1299, NCI-H1437) and liver (SNU-475, SK-HEP-1, SNU-387) cancer cell lines were obtained from ATCC and cultured in their respective media (prostate cells: RPMI-1640, MDA-MB-231: RPMI-1640, MDA-MB-453: Leibovitz's L-15, SK-BR-3: McCoy's 5a, A253: McCoy's 5a, Detroit 562: EMEM, SCC-25: DMEM, SK-Mel-3: McCoy's 5a, SK-Mel-1: EMEM, RPMI-7951: EMEM), CfPAC-1: IMDM, BxPC3: RPMI-1640, SW1990: Leibovitz's L-15), A549: F-12K, NCI-H1299: RPMI-1640, NCI-H1437: RPMI-1640, SNU-475: RPMI-1640, SK-HEP-1: EMEM, SNU-387: RPMI-1640. All media were supplemented with 10% (vol/vol) filtered fetal bovine serum (FBS, Invitrogen, Carlsbad, Calif.), 1% penicillin/streptomycin (Invitrogen) and maintained in a humidified incubator at 37° C. with 5% CO2 except for MDA-MB-453 and SW1990 grown at 37° C. without CO2 control. Wild type (ATCC) and C342T XPB knock-in cells (named T7115) of Human Embryonic Kidney 293T (HEK293T), HeLa (ATCC) were cultured in DMEM (GIBCO) with 10% (vol/vol) filtered fetal bovine serum (FBS, Invitrogen, Carlsbad, Calif.), 1% penicillin/streptomycin (Invitrogen).
XTT assay. Five thousand cells/well were plated on flat-bottom, transparent 96-well plate in a full growth media and incubated at appropriate culture conditions. Twenty four hours after seeding, cells were treated with indicated drugs and incubated for 47 hrs. Cell viability was measured using the R&D Systemsm TACS XTT Cell Proliferation/Viability Assay (R&D Systems, Minneapolis, Minn.).

[12] = system: A549; test: XTT viability assay, A549; assay type: cell-based; conditions: Homo sapiens, Lung Cancer
Description: as §1, §2

[13] = system: Fibroblast; test: XTT viability assay, primary fibroblasts; assay type: cell-based; conditions: Homo sapiens, Primary normal cells
Description: as §1, §2

[14] = system: SCC-25; test: XTT viability assay, SCC-25; assay type: cell-based; conditions: Homo sapiens; Head and Neck Cancer, SCC-25, XTT
Description: as §1, §2

[15] = system: A253; test: XTT viability assay, A253; assay type: cell-based; conditions: Homo sapiens, Head and Neck Cancer
Description: as §1, §2

[16] = system: Prostate Epithelial cell; test: XTT viability assay, prostate epithelial cells; assay type: cell-based; conditions: Homo sapiens, Primary normal cells
Description: as §1, §2

[17] = system: Renal Proximal Tubule; test: XTT viability assay, renal proximal tubule cells; assay type: cell-based; conditions: Homo sapiens, Primary normal cells
Description: as §1, §2

[18] = system: Detroit 562; test: XTT viability assay, Detroit 562; assay type: cell-based; conditions: Homo sapiens; Head and Neck Cancer, Detroit 562, XTT
Description: as §1, §2

[19] = system: PC3 cells; test: PC3 proliferation under hypoxia or normoxia ([3H]-thymidine incorporation); assay type: cell-based, human; conditions: for IC50: Homo sapiens, PC-3, 48 h, 48 h post treatment
Procedure: Proliferation and viability assays. [^3H]-thymidine incorporation. HEK293T cells (10,000 cells/well) were seeded into 96-well plates then cultured in DMEM plus 10% FBS and 1% penicillin/streptomycin at 37° C. with 5% CO2 overnight. Drugs were added at indicated concentrations and incubation was continued for an additional 24 h. For hypoxia, PC3 (5,000 cells/well) were exposed to 1% O2 (Airgas) in a humidified hypoxia chamber (Billups-Rothenberg) in 37° C. for 48 h prior to drug exposure for 48 h. Treated cells were then pulsed using an aliquot of 1 μCi of [^3H]-thymidine (Perkin Elmer) per well for an additional 6 h. Radiolabelled cells were harvested onto a printed Filtermat A glass fiber filter (Perkin Elmer) using a Tomtec Harvester 96 Mach III M. Betaplate Scint (Perkin Elmer) scintillation fluid was added to radiolabelled filters followed by scintillation counting on Microbeta2 LumiJET Microplate Counter (Perkin Elmer).

[20] = Non-malignant cells, read-out: mean IC50 by cell type
[21] = cell viability, panel of normal primary cells, read-out: range of IC50 values for primary cells

Compound	IC50 [1]	IC50 [2]	IC50 [3]	IC50 [4]	IC50 [5]	IC50 [6]	IC50 [7]	IC50 [8]	IC50 [9]	IC50 [10]	IC50 [11, 20]	IC50 [11, 21]	IC50 [12]	IC50 [13]	IC50 [14]	IC50 [15]	IC50 [16]	IC50 [17]	IC50 [18]	also measured
CC(C)[C@]12O[C@H]1[C@@H]1O[C@]13[C@]1(O[C@H]1C[C@H]1C4=C(CC[C@@]13C)C(=O)OC4)[C@@H]2OC(=O)CCC(=O)O[C@@H]1OC(CO)[C@@H](O)C(O)C1O (some centres unmarked) [Compound 10]	1.37 ± 0.73 µM	4.12 ± 1.39 µM	5.31 ± 4.29 µM	0.4 ± 0.13 µM	2.67 ± 1.34 µM	0.42 ± 0.34 µM	0.51 ± 0.35 µM	2.56 ± 0.29 µM	4.15 ± 0.18 µM	6.4 ± 2.43 µM	4.16 ± 0.93 µM	1.37 to 5.6 µM	1.7 ± 0.79 µM	5.64 ± 1.28 µM	1.26 ± 0.99 µM	0.71 ± 0.47 µM	5.27 ± 2.29 µM	4.83 ± 1.54 µM	1.42 ± 0.83 µM	–
CC(C)[C@]12O[C@H]1[C@@H]1O[C@]13[C@]1(O[C@H]1C[C@H]1C4=C(CC[C@@]13C)C(=O)OC4)[C@@H]2OC(=O)CCCO[C@@H]1OC(CO)[C@@H](O)C(O)C1O (stereo in doubt) [Compound 1]	3.98 ± 1.15 µM	7.13 ± 2.84 µM	10.9 ± 9.66 µM	0.44 ± 0.19 µM	5.95 ± 2.45 µM	0.44 ± 0.25 µM	0.47 ± 0.32 µM	4.31 ± 1.03 µM	5 ± 2.83 µM	11.5 ± 5.51 µM	6.8 ± 1.67 µM	4 to 10.9 µM	2.72 ± 1.41 µM	10.6 ± 1.22 µM	1.63 ± 0.78 µM	0.54 ± 0.4 µM	4.72 ± 3.48 µM	5.94 ± 2.21 µM	1.24 ± 0.61 µM	IC50 ([19]; PC3, hypoxic conditions (1% O2)): 0.081 µM; IC50 ([19]; PC3, normoxic conditions (20% O2)): 0.427 µM; fold enhancement of anti-proliferative effect during hypoxia ([19]; PC3, hypoxia versus normoxia): five-fold
